Data taken from patent US20170056504A1, “METHOD OF EXTENDING HALF-LIFE OF CRYSTALINE ANTIBODIES” (priority 2015, published 2017).

Columns and labels:
[1] = Lactulose with antibiotics cocktail: xPCSK9 mAb serum half-life and large intestine pH; format: in vivo, C57BL6 mice; details: with antibiotics cocktail in drinking water
Protocol: At Day 0, anti-PCSK9-mAb was systemically administrated (30 mg/kg in PBS, i.v.) to the FcRn gene knockout mice or their wild type C57BL/6 mice (8 w old male). Lactulose (30%, water solution) was orally administered using a Popper's feeding needle once in a day throughout the experiment. In some experiment, groups of mice received antibiotics cocktail (Ampicillin, 2 mg/ml; Vancomycin, 1 mg/ml, Metronidazole 2 mg/ml and Neomycin, 2 mg/ml) ad libitum for 7 days. Blood was collected from mice at Day 1 and Day 7 (100 ul/mouse) by retro-orbital bleeding. The serum was separated from the collected blood and saved at −70 C until the measurement of anti-PCSK9-mAb as well as low-density lipoprotein (LDL) cholesterol in the sampled serum. At Day 7, right after the collection of blood, mice were sacrificed, and liver, small intestine (distal portion, 2 cm above cecum) and large intestine (proximal colon, 1 cm below cecum) were collected. […] The amount of LDL/VLDL in the serum was monitored using a HDL and LDL/VLDL Quantitation Kit (Sigma-Aldrich). The amount of anti-PCSK9-mAb in serum, liver, small and large intestines were measured using the ELISA as described above #1. […] In FIG. 11B, content of large intestine sampled from sacrificed mice was suspended in water (0.1 g/1 ml) and the pH was monitored.

[2] = Mouse model of high fat diet induced hyperlipidemia (another study); format: in vivo
[3] = system: Substance P and nerve growth factor (NGF); assay: Pregabalin-mediated suppression of pain associated factors with lactulose-generated hydrogen; format: in vivo; details: hydrogen generated by lactulose, mice
PCSK9 = PCSK9 (Mus musculus, UniProt Q80W65); assay: LDL level in blood serum of mice that received xPCSK9 mAb and/or lactulose; format: in vivo, C57BL6 mice; parameters: endogenous in cells; host or cells: C57BL6 mice, in vivo (circulating PCSK9 of the animal); details: oral lactulose alone without xPCSK9 mAb, Day 7
Protocol: At Day 0, anti-PCSK9-mAb was systemically administrated (30 mg/kg in PBS, i.v.) to the FcRn gene knockout mice or their wild type C57BL/6 mice (8 w old male). Lactulose (30%, water solution) was orally administered using a Popper's feeding needle once in a day throughout the experiment. In some experiment, groups of mice received antibiotics cocktail (Ampicillin, 2 mg/ml; Vancomycin, 1 mg/ml, Metronidazole 2 mg/ml and Neomycin, 2 mg/ml) ad libitum for 7 days. Blood was collected from mice at Day 1 and Day 7 (100 ul/mouse) by retro-orbital bleeding. The serum was separated from the collected blood and saved at −70 C until the measurement of anti-PCSK9-mAb as well as low-density lipoprotein (LDL) cholesterol in the sampled serum. […] The amount of LDL/VLDL in the serum was monitored using a HDL and LDL/VLDL Quantitation Kit (Sigma-Aldrich). The amount of anti-PCSK9-mAb in serum, liver, small and large intestines were measured using the ELISA as described above #1. […]
From Day-0 to Day 7, Lactulose (50% water solution, 0.2 ml/mouse) or control water (0.2 ml/mouse) was orally administered once/day. […] At Day 0, prior to any administrations, and Day 7, blood serum was collected and the concentration of LDL was monitored using LDL detection kit (Sigma).

Chain of PCSK9 (Q80W65 156-694): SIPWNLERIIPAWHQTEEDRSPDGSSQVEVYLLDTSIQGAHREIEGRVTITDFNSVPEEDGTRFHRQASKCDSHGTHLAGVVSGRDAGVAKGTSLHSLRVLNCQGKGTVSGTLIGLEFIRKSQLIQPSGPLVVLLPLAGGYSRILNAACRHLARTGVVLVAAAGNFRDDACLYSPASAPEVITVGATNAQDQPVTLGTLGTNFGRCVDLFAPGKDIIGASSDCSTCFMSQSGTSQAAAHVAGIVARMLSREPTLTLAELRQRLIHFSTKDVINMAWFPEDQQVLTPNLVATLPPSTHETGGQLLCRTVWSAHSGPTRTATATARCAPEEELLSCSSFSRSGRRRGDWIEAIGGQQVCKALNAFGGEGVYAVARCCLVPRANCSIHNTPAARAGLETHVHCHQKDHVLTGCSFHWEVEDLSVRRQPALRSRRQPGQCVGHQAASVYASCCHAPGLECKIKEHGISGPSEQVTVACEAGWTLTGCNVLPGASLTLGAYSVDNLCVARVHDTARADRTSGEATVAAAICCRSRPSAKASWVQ

effect of lactulose on extending the serum half-life of xPCSK9 mAb [1]: abolished
SMILES: OC[C@H]1O[C@@H](O[C@@H]2[C@@H](CO)OC(O)(CO)[C@H]2O)[C@H](O)[C@@H](O)[C@H]1O (mixture of isomers) [lactulose]
oxidized LDL (oxLDL) [2]: can suppress | effect on pregabalin-mediated suppression of Substance P and NGF [3]: additive effect | LDL level in blood serum versus base line (Day 0) (PCSK9): did not show any changes from the base line level
